Measured values as given in US20240408071A1, “NOVEL COMBINATION OF SEROTONIN RECEPTOR (5-HTR2B) ANTAGONIST AND AN IMMUNOMODULATOR AND CHEMOTHERAPEUTIC DRUGS FOR INHIBITION OF CANCER” (NATIONAL CENTRE FOR CELL SCIENCE, priority 2021, published 2024).

Experiments:
PD-L1 = assay: Serum PD-L1 ELISA in MC38 tumor-bearing mice; format: in vivo, C57BL/6J mice; settings: MC38-induced colon tumor-bearing mice, SSRI treatment
Procedure: FIG. 13 depicts 5-HTR2B signaling promotes PD-L1 expression on the MC38 cell line in vitro: (A-B) MC38 cells are treated with 5-HTR2B agonist (BW-723C86-50 μM), serotonin (100 μM), and 5-HTR2B antagonist (RS-127445-50 μM) for 72 hours, and the PD-L1 expression was checked by flow cytometry and the percentage of PD-L1^+ MC38 cells was plotted. (C-D) MFI of PD-L1 from the above experiment were plotted as histogram overlay (C) or as statistical data points (D). (E) Relative PD-L1 mRNA expression in MC38 cells following BW-723C86 and RS-127445 treatment for 48 hours. Here the values are shown as a fold change as compared to control MC38 cells. […] All the statistical analysis was performed using either Student's ‘t’ test or two-way ANOVA using Sidak's multiple comparison test. *P<0.05; **P<0.01; […]; ****P<0.0001 Error bar represents mean±standard error of means (SEM).
(§1) Universal competitive serotonin ELISA kit was purchased from Novus biological (Catalog #NBP2-68127), and ELISA was performed according to the manufacturer's protocol. Mouse PD-L1 DuoSet ELISA kit was procured from the R&D System (Catalog #DY1019-05), and the ELISA was performed according to the manufacturer's guidelines.
To understand it, investigations were done on whether 5-HTR2B signaling also affects the surface expression of molecules that alters inflammatory and cytotoxic immune cells. Among different molecules, PD-L1 is of particular interest as it is an immune checkpoint ligand that affects cytotoxic T-cell responses toward cancer. […] (FIG. 13F).

serotonin = assay: Serum serotonin level in MC38 colon tumor-bearing mice; format: in vivo; settings: MC38-induced colon tumor-bearing mice, SSRI treatment
Procedure: This secretory variant of PD-L1 is responsible for most of the resistance to the anti-PD-L1 therapy in the tumor.
as §1

MC38 colon cancer cells = assay: MC38 colon tumor growth (tumor volume) in C57BL/6 mice; format: in vivo; settings: sertraline hydrochloride 15 mg/kg/week (FIG. 7C)
Procedure: Tumor volumes were measured and plotted. (B) MC38 colon cancer cells were injected subcutaneously into the right flank of C57BL/6 mice. After seven days when tumors became palpable, one group was treated with 5-HTR7 antagonist SB-269970 (n=6 mice; 3 mg/kg/day) or left untreated (n=6 mice). Tumor volume was measured and plotted. (C) After seven days of the setting of tumor growth, one group was treated with a serotonin transporter blocker (SSRI) sertraline hydrochloride (n=6 mice; 15 mg/kg/week) or left untreated (n=6 mice). Tumor volume was measured and plotted. (D) C57BL/6 mice were given subcutaneously injected MC38 cells. After seven days of tumor growth, one group of mice was treated with different doses of 5-HTR2B antagonist SB-215505 (n=6). Tumor volume was measured and plotted. (E) C57BL/6 mice were given subcutaneously injected MC38 cells. After seven days of the tumor growth, one group of mice was treated with different doses of 5-HTR2B antagonist SB-215505 (n=6), one group treated with 5-HTR2B agonist BW-723C86 (n=6; 4 mg/kg/day). Tumor volume was measured and plotted. (F) MC38 cells were subcutaneously injected into C57BL/6 mice. After seven days when the tumor became palpable in mice, one group of mice was treated with FDA-approved 5-HTR2B antagonist cariprazine (Carispec; Sun pharma) via oral gavage (n=5 mice; dose 5 mg/kg body weight/day) or left untreated (n=5 mice). Tumor growth was measured and plotted. […] All the statistical analysis was performed using Student's ‘t’ test or two-way ANOVA using Sidak's multiple comparison test. *P<0.05; **P<0.01; ***P<0.00; ****P<0.0001 Error bar represents mean±standard error of means (SEM).

CN[C@H]1CC[C@@H](c2ccc(Cl)c(Cl)c2)c2ccccc21 [sertraline]
secretory PD-L1 variant level in the serum (PD-L1): enhanced the secretory PD-L1 variant level in the serum
free serotonin level in the serum (serotonin): increased free serotonin level in the serum
MC38 tumor growth (MC38 colon cancer cells): promotes MC38 tumor growth
